Experimental data taken from US20090325964A1, “Piperazine Metabotropic Glutamate Receptor 5 (MGLUR5) Negative Allosteric Modulators For Anxiety/Depression” (Wyeth, priority 2008, published 2009).
pKi: −log10 of the molar value. Like-named read-outs stand apart in the source and are kept apart here.

Biological target: T1, rat mGluR5 receptor (Rattus norvegicus, UniProt P31424)
T1 construct: expressed in transfected cells; host or cells: HEK-293
Assay: [3H]-MPEP displacement binding assay, HEK-293 cell membranes expressing rat mGluR5
Settings: for pKi: read-out: Median Ki
Description: MGluR5 expressing HEK-293 cells were scraped off a plate, transferred to centrifuge tubes and washed twice by centrifugation (2000 rpm for 10 minutes, at 4° C.) in buffer (50 mM Tris pH 7.5). The resulting pellets were aliquoted and stored at minus 80° C. On the day of assay, the cells were thawed on ice and re-suspended in buffer. The binding assay was performed in a 96 well microtiter plate in a total volume of […]. Non-specific binding was determined in the presence of 10 μM MPEP. The binding reaction included a final radioligand [^3H]-MPEP concentration of 4 nM and 12-25 μg membrane protein per well. Following a 60 minute incubation at room temperature, the reaction was terminated by the addition of ice cold buffer and rapid filtration through a GF/B filter that had been presoaked for 30 minutes in 0.5% PEI. Compounds were initially tested in a single point assay to determine percent inhibition at 10 μM.
Percent inhibition and Ki values were generated by GraphPad Prism and Excel Fit. IC50 values were calculated using GraphPad by fitting to a 1 or 2 site-binding model.
where [L] is the concentration of free radioligand and Kd is the dissociation constant of radioligand for the receptor.

[1] = 1 h, single point, @ 10 μm compound, Table 1A, read-out: PCT INHIB (%) @ 10 μm
[2] = @ 10 μM compound, Biological Activity, Table 2A, read-out: PCT INHIB (%) @ 10 μM

T1 sequence (P31424 21-1203): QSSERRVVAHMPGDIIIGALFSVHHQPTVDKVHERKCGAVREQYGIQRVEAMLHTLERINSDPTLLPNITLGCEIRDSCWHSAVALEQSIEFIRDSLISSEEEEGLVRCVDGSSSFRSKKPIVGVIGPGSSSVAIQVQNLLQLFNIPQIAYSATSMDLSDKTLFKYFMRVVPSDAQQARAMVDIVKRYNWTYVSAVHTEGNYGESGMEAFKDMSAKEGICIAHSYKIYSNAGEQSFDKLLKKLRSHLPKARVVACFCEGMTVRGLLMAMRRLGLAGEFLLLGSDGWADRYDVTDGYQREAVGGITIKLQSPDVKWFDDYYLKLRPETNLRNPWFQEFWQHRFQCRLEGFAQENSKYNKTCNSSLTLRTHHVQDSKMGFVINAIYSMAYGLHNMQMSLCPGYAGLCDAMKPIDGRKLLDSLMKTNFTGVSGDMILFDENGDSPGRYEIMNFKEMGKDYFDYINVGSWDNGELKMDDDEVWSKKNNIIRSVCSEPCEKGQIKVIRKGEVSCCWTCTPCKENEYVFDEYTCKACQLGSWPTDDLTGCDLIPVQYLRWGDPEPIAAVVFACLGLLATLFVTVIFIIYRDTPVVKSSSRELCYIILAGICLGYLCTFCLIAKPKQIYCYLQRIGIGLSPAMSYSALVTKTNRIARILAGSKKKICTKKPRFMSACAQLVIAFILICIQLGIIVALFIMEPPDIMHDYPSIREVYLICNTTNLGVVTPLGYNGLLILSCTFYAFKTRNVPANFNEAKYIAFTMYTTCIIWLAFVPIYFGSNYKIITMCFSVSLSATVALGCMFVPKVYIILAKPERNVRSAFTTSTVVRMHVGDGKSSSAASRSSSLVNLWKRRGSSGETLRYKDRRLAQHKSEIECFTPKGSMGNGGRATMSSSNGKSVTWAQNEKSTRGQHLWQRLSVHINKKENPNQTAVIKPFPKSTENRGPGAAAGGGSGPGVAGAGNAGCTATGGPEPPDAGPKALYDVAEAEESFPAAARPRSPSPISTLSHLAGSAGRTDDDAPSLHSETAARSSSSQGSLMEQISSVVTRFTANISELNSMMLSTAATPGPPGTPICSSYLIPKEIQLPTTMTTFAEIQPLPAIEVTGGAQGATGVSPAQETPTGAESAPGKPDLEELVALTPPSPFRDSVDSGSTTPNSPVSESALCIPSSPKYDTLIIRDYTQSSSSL

SMILES | pKi | inhibition at 10 µM [2] [%] | further results
COc1ccc(C(=O)N2CCN(c3cnccn3)CC2)cc1C#Cc1cccc(C)c1 [Compound 53, 2-(4-{4-methoxy-3-[(3-methylphenyl)ethynyl]benzoyl}piperazin-1-yl)pyrazine] | 8.06 | – | inhibition at 10 µM [1]: 95%
COc1ccc(C(=O)N2CCN(c3cnccn3)CC2)cc1C#Cc1cccc(C(F)(F)F)c1 [Compound 54, 2-[4-(4-methoxy-3-{[3-(trifluoromethyl)phenyl]ethynyl}benzoyl)piperazin-1-yl]pyrazine] | 6.96 | – | inhibition at 10 µM [1]: 96%
Cc1ccc(C(=O)N2CCN(c3cnccn3)CC2)cc1C#CC1=CCCCC1 [Compound 56, 2-{4-[3-(cyclohex-1-en-1-ylethynyl)-4-methylbenzoyl]piperazin-1-yl}pyrazine] | 5.72 | – | inhibition at 10 µM [1]: 70%
Cc1ccc(C(=O)N2CCN(c3cnccn3)CC2)cc1C#CCc1ccccc1 [Compound 57, 2-{4-[4-methyl-3-(3-phenylprop-1-yn-1-yl)benzoyl]piperazin-1-yl}pyrazine] | 6.44 | – | inhibition at 10 µM [1]: 87%
COc1cccc(C#Cc2cc(C(=O)N3CCN(c4cnccn4)CC3)ccc2C)c1 [Compound 58, 2-(4-{3-[(3-methoxyphenyl)ethynyl]-4-methylbenzoyl}piperazin-1-yl)pyrazine] | 6.49 | – | inhibition at 10 µM [1]: 93%
Cc1cccc(C#Cc2cc(C(=O)N3CCN(c4cnccn4)CC3)ccc2C)c1 [Compound 59, 2-(4-{4-methyl-3-[(3-methylphenyl)ethynyl]benzoyl}piperazin-1-yl)pyrazine] | 7.20 | – | inhibition at 10 µM [1]: 100%
Cc1ccc(C(=O)N2CCN(c3cnccn3)CC2)cc1C#Cc1cccc(C(F)(F)F)c1 [Compound 60, 2-[4-(4-methyl-3-{[3-(trifluoromethyl)phenyl]ethynyl}benzoyl)piperazin-1-yl]pyrazine] | 6.13 | – | inhibition at 10 µM [1]: 85%
COc1ccc(C(=O)N2CCN(c3cnccn3)CC2)cc1C#Cc1cccc(F)c1 [Compound 61, 2-(4-{3-[(3-fluorophenyl)ethynyl]-4-methoxybenzoyl}piperazin-1-yl)pyrazine] | 7.66 | – | –
Cc1ccc(C(=O)N2CCN(c3cnccn3)CC2)cc1C#Cc1cccc(F)c1 [Compound 62, 2-(4-{3-[(3-fluorophenyl)ethynyl]-4-methylbenzoyl}piperazin-1-yl)pyrazine] | 6.92 | – | –
COc1ccc(C(=O)N2CCN(c3ccccn3)CC2)cc1C#Cc1cccc(F)c1 [Compound 63, 1-{3-[(3-fluorophenyl)ethynyl]-4-methoxybenzoyl}-4-pyridin-2-ylpiperazine] | 8.13 | – | –
Cc1ccc(C(=O)N2CCN(c3ccccn3)CC2)cc1C#Cc1cccc(F)c1 [Compound 64, 1-{3-[(3-fluorophenyl)ethynyl]-4-methylbenzoyl}-4-pyridin-2-ylpiperazine] | 6.88 | – | –
COc1ccc(C(=O)N2CCN(c3cnccn3)CC2)cc1C#Cc1cccc(Cl)c1 [Compound 65, 2-(4-{3-[(3-chlorophenyl)ethynyl]-4-methoxybenzoyl}piperazin-1-yl)pyrazine] | 8.68 | – | –
COc1ccc(C(=O)N2CCN(c3cnccn3)CC2)cc1C#Cc1ccccn1 [Compound 66, 2-{4-[4-methoxy-3-(pyridin-2-ylethynyl)benzoyl]piperazin-1-yl}pyrazine] | 7.67 | – | –
Cc1ccc(C(=O)N2CCN(c3cnccn3)CC2)cc1C#Cc1cccc(Cl)c1 [Compound 67, 2-(4-{3-[(3-chlorophenyl)ethynyl]-4-methylbenzoyl}piperazin-1-yl)pyrazine] | 7.31 | – | –
Cc1ccc(C(=O)N2CCN(c3cnccn3)CC2)cc1C#Cc1ccccn1 [Compound 68, 2-{4-[4-methyl-3-(pyridin-2-ylethynyl)benzoyl]piperazin-1-yl}pyrazine] | 8.05 | – | –
CN1CCN(C(=O)c2cccc(C#Cc3ccccc3)c2)CC1 [Compound 70, 1-methyl-4-[3-(phenylethynyl)benzoyl]piperazine] | – | 0 | –
COc1ccc(N2CCN(C(=O)c3cccc(C#Cc4ccccc4)c3)CC2)cc1 [Compound 71, 1-(4-methoxyphenyl)-4-[3-(phenylethynyl)benzoyl]piperazine] | – | 40 | –
O=C(c1cccc(C#Cc2ccccc2)c1)N1CCN(c2ccc(Cl)cc2)CC1 [Compound 72, 1-(4-chlorophenyl)-4-[3-(phenylethynyl)benzoyl]piperazine] | – | 30 | –
Cc1ccc(N2CCN(C(=O)c3cccc(C#Cc4ccccc4)c3)CC2)cc1 [Compound 73, 1-(4-methylphenyl)-4-[3-(phenylethynyl)benzoyl]piperazine] | – | 0 | –
CC(=O)c1ccc(N2CCN(C(=O)c3cccc(C#Cc4ccccc4)c3)CC2)cc1 [Compound 74, 1-(4-{-[3-(phenylethynyl)benzoyl]piperazine-1-yl}phenyl)ethanone] | – | – | PCT INHIB (%) @ 10 μM (@ 10 μM compound, Biological Activity, Table 2A): 20%

SMILES | pKi | inhibition at 10 µM [2] [%] | further results
O=C(c1cccc(C#Cc2ccccc2)c1)N1CCN(c2ccc([N+](=O)[O-])cc2)CC1 [Compound 75, 1-(4-nitrophenyl)-4-[3-(phenylethynyl)benzoyl]piperazine] | – | 20 | –
O=C(c1cccc(C#Cc2ccccc2)c1)N1CCN(c2ccccc2)CC1 [Compound 76, 1-phenyl-4-[3-(phenylethynyl)benzoyl]piperazine] | – | 86 | pKi (Biological Activity, Table 2A): 5.89
O=C(c1cccc(C#Cc2ccccc2)c1)N1CCN(c2ccc(C(F)(F)F)cc2)CC1 [Compound 77, 1-[3-(phenylethynyl)benzoyl]-4-[4-(trifluoromethyl)phenyl]piperazine] | – | 0 | –
Cc1cccc(C)c1N1CCN(C(=O)c2cccc(C#Cc3ccccc3)c2)CC1 [Compound 78, 1-(2,6-dimethylphenyl)-4-[3-(phenylethynyl)benzoyl]piperazine] | – | 53 | pKi (Biological Activity, Table 2A): < 5.00
O=C(c1cccc(C#Cc2ccccc2)c1)N1CCN(c2ccc(F)cc2)CC1 [Compound 79, 1-(4-fluorophenyl)-4-[3-(phenylethynyl)benzoyl]piperazine] | – | 28 | –
CSc1ccccc1N1CCN(C(=O)c2cccc(C#Cc3ccccc3)c2)CC1 [Compound 80, 1-[2-(methylthio)phenyl]-4-[3-(phenylethynyl)benzoyl]piperazine] | – | 24 | –
COc1cccc(N2CCN(C(=O)c3cccc(C#Cc4ccccc4)c3)CC2)c1 [Compound 81, 1-(3-methoxyphenyl)-4-[3-(phenylethynyl)benzoyl]piperazine] | – | 78 | pKi (Biological Activity, Table 2A): 5.47
O=C(c1cccc(C#Cc2ccccc2)c1)N1CCN(c2cccc(Cl)c2)CC1 [Compound 82, 1-(3-chlorophenyl)-4-[3-(phenylethynyl)benzoyl]piperazine] | – | 58 | pKi (Biological Activity, Table 2A): 5.56
O=C(c1cccc(C#Cc2ccccc2)c1)N1CCN(c2ccc(O)cc2)CC1 [Compound 83, 4-{4-[3-(phenylethynyl)benzoyl]piperazin-1-yl}phenol] | – | 74 | pKi (Biological Activity, Table 2A): < 5.00
O=C(c1cccc(C#Cc2ccccc2)c1)N1CCN(c2cc(Cl)cc(Cl)c2)CC1 [Compound 84, 1-(3,5-dichlorophenyl)-4-[3-(phenylethynyl)benzoyl]piperazine] | – | 0 | –
O=C(c1cccc(C#Cc2ccccc2)c1)N1CCN(c2cccc(C(F)(F)F)c2)CC1 [Compound 85, 1-[3-(phenylethynyl)benzoyl]-4-[3-(trifluoromethyl)phenyl]piperazine] | – | 32 | –
O=C(c1cccc(C#Cc2ccccc2)c1)N1CCN(c2cnccn2)CC1 [Compound 86, 2-{4-[3-(phenylethynyl)benzoyl]piperazin-1-yl}pyrazine] | – | 85 | –
O=C(c1cncc(C#Cc2ccccc2)c1)N1CCN(c2ccccn2)CC1 [Compound 87, 1-{[5-(phenylethynyl)pyridin-3-yl]carbonyl}-4-pyridin-2-ylpiperazine] | – | 56 | pKi (Biological Activity, Table 2A): 5.48
O=C(c1ccc(F)c(C#Cc2ccccc2)c1)N1CCN(c2ccccn2)CC1 [Compound 89, 1-[4-fluoro-3-(phenylethynyl)benzoyl]-4-pyridin-2-ylpiperazine] | – | 51 | pKi (Biological Activity, Table 2A): 7.30
Cc1c(C#Cc2ccccc2)cccc1C(=O)N1CCN(c2ccccn2)CC1 [Compound 91, 1-[2-methyl-3-(phenylethynyl)benzoyl]-4-pyridin-2-ylpiperazine] | – | 18 | –
O=C(c1cccc(C#Cc2cccnc2)c1)N1CCN(c2ccccn2)CC1 [Compound 93, 1-pyridin-2-yl-4-[3-(pyridin-3-ylethynyl)benzoyl]piperazine] | – | 26 | –
O=C(c1cccc(C#Cc2ccccn2)c1)N1CCN(c2cnccn2)CC1 [Compound 94, 2-{4-[3-(pyridin-2-ylethynyl)benzoyl]piperazin-1-yl}pyrazine] | – | 79 | pKi (Biological Activity, Table 2A): 6.40
N#Cc1ccc(N2CCN(C(=O)c3cccc(C#Cc4ccccn4)c3)CC2)nc1 [Compound 96, 6-{4-[3-(pyridin-2-ylethynyl)benzoyl]piperazin-1-yl}nicotinonitrile] | – | 50 | pKi (Biological Activity, Table 2A): 5.49
O=C(c1cccc(C#Cc2ccccn2)c1)N1CCN(c2nnn[nH]2)CC1 [Compound 97, 1-[3-(pyridin-2-ylethynyl)benzoyl]-4-(1H-tetrazol-5-yl)piperazine] | – | 0 | –
